This assay has as its system HIV-1 (HIVIIIB) replication in MT2 cell line. Description: HIV-1 replication in MT2 cell line with and without 30% human serum (viral RT activity in supernatant). It is filed as cell-based. As for the experimental part: HIV-1 Replication in MT2 cell line with and without 30% human serum: The cells are infected at a Multiciplicity of Infection (MOI) of 0.5 for 3 h and then washed twice with complete media to remove residual virus. Cells are then resuspended at 0.5×10^6/ml in complete medium (RPMI, 10% FBS, 1% sodium pyruvate), and seeded into 96-well plates (6.25×10^4/well). The cells are cultured in the presence or absence of various concentrations of test compounds in serial dilutions for 3 days at 37° C. The test compounds are serially diluted in complete medium supplemented or not with 30% human serum. After 3 days, 100 μL of cultured medium with cells are replaced with 120 μL of freshly diluted test compounds in complete medium containing or not 30% Human serum. The level of HIV-1 replication is determined at days 5 after infection by the presence of viral RT activity in harvested supernatant fluid. The IC50 and IC90 values for the virus replication are determined by using GRAPHPAD PRISM software.
The IC50 of the compounds tested in accordance with the HIV replication activity assay MT2 (HIVIIIB) are represented in Table 1.

[1] abbreviates: Human immunodeficiency virus 1, MT2 cells, with 30% human serum, average IC50 if tested more than once, read-out: MT2 (HIVIIIB) with HS 30% IC50 range.
The mark [2] stands for this setting: Human immunodeficiency virus 1, MT2 cells, without human serum, average IC50 if tested more than once, read-out: MT2 (HIVIIIB) IC50 range.

Where a name gives a salt, the structure may show the parent alone. Read-outs that look alike come from different tables or passages of the source.

One may read the IC50 as the concentration needed to halve the response being measured. Regarding `CC(C)C1=C2[C@H]3CC[C@@H]4[C@@]5(C)CC[C@H](OC(=O)CC(C)(C)C(=O)O)C(C)(C)[C@@H]5CC[C@@]4(C)[C@]3(C)CC[C@@]2(NC(=O)Nc2ccccc2)CC1=O` [17-3, 3β-O-(3′,3′-Dimethylsuccinyl)-17β-[N′-(phenyl)ureido]-21-oxolup-18-ene], the IC50 under setting [1] is less than 199 nM and the IC50 under setting [2] was less than 199 nM.
With `CC(C)NC(=O)N[C@@]12CC[C@]3(C)C(CCC4[C@@]5(C)CC[C@H](OC(=O)CC(C)(C)C(=O)O)C(C)(C)C5CC[C@]43C)C1=C(C(C)C)C(=O)C2` (stereo partly drawn) [17-4, 3β-O-(3′,3′-Dimethylsuccinyl)-17β-[N′-(isopropyl)ureido]-21-oxolup-18-ene], the IC50 runs as follows: under setting [1], less than 199 nM; under setting [2], less than 199 nM.
Take `CC(C)C1=C2C3CCC4[C@@]5(C)CC[C@H](OC(=O)CC(C)(C)C(=O)O)C(C)(C)C5CC[C@@]4(C)[C@]3(C)CC[C@@]2(NC(=O)NC(C)(C)C)CC1=O` (stereo partly drawn) [17-5, 3β-O-(3′,3′-Dimethylsuccinyl)-17β-[N′-(tert-butyl)ureido]-21-oxolup-18-ene]: the IC50 was less than 199 nM under setting [1] and less than 199 nM under setting [2].
Regarding `CC(C)C1=C2C3CCC4[C@@]5(C)CC[C@H](OC(=O)CC(C)(C)C(=O)O)C(C)(C)C5CC[C@@]4(C)[C@]3(C)CC[C@@]2(NC(=O)Nc2cccnc2)CC1=O` (stereo partly drawn) [17-6, 3β-O-(3′,3′-Dimethylsuccinyl)-17β-[N′-(pyridin-3-yl)ureido]-21-oxolup-18-ene], the IC50 under setting [1] is less than 199 nM and the IC50 under setting [2] is less than 199 nM.
`CC(C)C1=C2C3CCC4[C@@]5(C)CC[C@H](OC(=O)CC(C)(C)C(=O)O)C(C)(C)C5CC[C@@]4(C)[C@]3(C)CC[C@@]2(NC(=O)NC2CCCCC2)CC1=O` (stereo partly drawn) [17-7, 3β-O-(3′,3′-Dimethylsuccinyl)-17β-[N′-(cyclohexyl)ureido]-21-oxolup-18-ene]: the IC50 under setting [1] is less than 199 nM.
Turning to `CC(C)C1=C2C3CCC4[C@@]5(C)CC[C@H](OC(=O)CC(C)(C)C(=O)O)C(C)(C)C5CC[C@@]4(C)[C@]3(C)CC[C@@]2(NC(=O)NCC2CCCCC2)CC1=O` (stereo partly drawn) [17-8, 3β-O-(3′,3′-Dimethylsuccinyl)-17β-[N′-(cyclohexylmethyl)ureido]-21-oxolup-18-ene], the IC50 under setting [1] was less than 199 nM.
Consider `CC(C)C1=C2[C@H]3CC[C@@H]4[C@@]5(C)CC[C@H](OC(=O)CC(C)(C)C(=O)O)C(C)(C)[C@@H]5CC[C@@]4(C)[C@]3(C)CC[C@@]2(NC(=O)NC2CCN(C(=O)OC(C)(C)C)CC2)CC1=O` [17-9, 3β-O-(3′,3′-Dimethylsuccinyl)-17β[N′-(1-tert-butyloxycarbonyl-piperidin-4-yl)-ureido]-21-oxolup-18-ene], for which the IC50 under setting [1] is less than 199 nM.
Consider `CC(C)C1=C2C3CCC4[C@@]5(C)CC[C@H](OC(=O)CC(C)(C)C(=O)O)C(C)(C)C5CC[C@@]4(C)[C@]3(C)CC[C@@]2(NC(=O)NC2CCNCC2)CC1=O` (stereo partly drawn) [17-10, 3β-O-(3′,3′-Dimethylsuccinyl)-17β-(N′-piperidin-4-yl-ureido)-21-oxolup-18-ene], for which, under setting [1], the IC50 was greater than 1000 nM.
For the molecule `CC(=O)N1CCC(NC(=O)N[C@@]23CC[C@]4(C)C(CCC5[C@@]6(C)CC[C@H](OC(=O)CC(C)(C)C(=O)O)C(C)(C)C6CC[C@]54C)C2=C(C(C)C)C(=O)C3)CC1` (stereo partly drawn) [17-11, 3β-O-(3′,3′-Dimethylsuccinyl)-17β-[N′-(1-acetyl-piperidin-4-yl)-ureido]-21-oxolup-18-ene], the IC50 under setting [1] is less than 199 nM.
Same read-out and setting: to `CC(C)C1=C2C3CCC4[C@@]5(C)CC[C@H](OC(=O)CC(C)(C)C(=O)O)C(C)(C)C5CC[C@@]4(C)[C@]3(C)CC[C@@]2(NC(=O)NCc2cccnc2)CC1=O` (stereo partly drawn) [17-12, 3β-O-(3′,3′-Dimethylsuccinyl)-17β-[N′-(pyridin-3-ylmethyl)ureido]-21-oxolup-18-ene] belongs less than 199 nM; to `CC(C)C1=C2[C@H]3CC[C@@H]4[C@@]5(C)CC[C@H](OC(=O)CC(C)(C)C(=O)O)C(C)(C)[C@@H]5CC[C@@]4(C)[C@]3(C)CC[C@@]2(NC(=O)N2CCOCC2)CC1=O` [17-13, 3β-O-(3′,3′-Dimethylsuccinyl)-17β-[(morpholine-4-carbonyl)-amino]-21-oxolup-18-ene], less than 199 nM.
For `CC(C)C1=C2[C@H]3CC[C@@H]4[C@@]5(C)CC[C@H](OC(=O)CC(C)(C)C(=O)O)C(C)(C)[C@@H]5CC[C@@]4(C)[C@]3(C)CC[C@@]2(NC(=O)N2CCN(C(=O)OC(C)(C)C)CC2)CC1=O` [17-14, 3β-O-(3′,3′-Dimethylsuccinyl)-17β-[(4-tert-butyloxycarbonyl-piperazine-1-carbonyl)-amino]-21-oxolup-18-ene], the IC50 by setting is: under setting [1], less than 199 nM; under setting [2], less than 199 nM.
Regarding `CC(C)C1=C2[C@H]3CC[C@@H]4[C@@]5(C)CC[C@H](OC(=O)CC(C)(C)C(=O)O)C(C)(C)[C@@H]5CC[C@@]4(C)[C@]3(C)CC[C@@]2(NC(=O)N2CCNCC2)CC1=O` [17-15, 3β-O-(3′,3′-Dimethylsuccinyl)-17β-[(piperazine-1-carbonyl)-amino]-21-oxolup-18-ene], the IC50 under setting [1] is less than 199 nM and the 50% inhibitory concentration (IC50) under setting [2] is less than 199 nM.
For the molecule `CC(C)C1=C2[C@H]3CC[C@@H]4[C@@]5(C)CC[C@H](OC(=O)CC(C)(C)C(=O)O)C(C)(C)[C@@H]5CC[C@@]4(C)[C@]3(C)CC[C@@]2(NC(=O)N2CCN(C)CC2)CC1=O` [17-16, 3β-O-(3′,3′-Dimethylsuccinyl)-17β-[(4-methyl-piperazine-1-carbonyl)-amino]-21-oxolup-18-ene], the IC50 under setting [1] was less than 199 nM.
On the same count and under the same terms, to `CC(=O)N1CCN(C(=O)N[C@@]23CC[C@]4(C)[C@H](CC[C@@H]5[C@@]6(C)CC[C@H](OC(=O)CC(C)(C)C(=O)O)C(C)(C)[C@@H]6CC[C@]54C)C2=C(C(C)C)C(=O)C3)CC1` [17-17, 3β-O-(3′,3′-Dimethylsuccinyl)-17β-[(4-acetyl-piperazine-1-carbonyl)-amino]-21-oxolup-18-ene] belongs less than 199 nM; to `CC(C)C1=C2C3CCC4[C@@]5(C)CC[C@H](OC(=O)CC(C)(C)C(=O)O)C(C)(C)C5CC[C@@]4(C)[C@]3(C)CC[C@@]2(NC(=O)N(C)C(C)C)CC1=O` (stereo partly drawn) [17-18, 3β-O-(3′,3′-Dimethylsuccinyl)-17β-[N′-isopropyl-N′-methyl-ureido]-21-oxolup-18-ene], less than 199 nM.
On the same count and under the same terms, under `Cc1nnc(NC(=O)N[C@@]23CC[C@]4(C)C(CCC5[C@@]6(C)CC[C@H](OC(=O)CC(C)(C)C(=O)O)C(C)(C)C6CC[C@]54C)C2=C(C(C)C)C(=O)C3)o1` (stereo partly drawn) [17-19, 3β-O-(3′,3′-Dimethylsuccinyl)-17β-(N′-5-methyl-[1,3,4]oxadiazol-2-yl-ureido)-21-oxolup-18-ene] stands less than 199 nM; under `CC(C)C1=C2C3CCC4[C@@]5(C)CC[C@H](OC(=O)CC(C)(C)C(=O)O)C(C)(C)C5CC[C@@]4(C)[C@]3(C)CC[C@@]2(NC(=O)N2CCC(NC(=O)OC(C)(C)C)CC2)CC1=O` (stereo partly drawn) [17-20, 3β-O-(3′,3′-Dimethylsuccinyl)-17β-[(4-tert-butoxycarbonylamino-piperidine-1-carbonyl)-amino]-21-oxolup-18-ene], less than 199 nM.
Still for that read-out and setting: to `CC(C)C1=C2C3CCC4[C@@]5(C)CC[C@H](OC(=O)CC(C)(C)C(=O)O)C(C)(C)C5CC[C@@]4(C)[C@]3(C)CC[C@@]2(NC(=O)NCC2CC2)CC1=O` (stereo partly drawn) [17-21, 3β-O-(3′,3′-Dimethylsuccinyl)-17β-(N′-cyclopropylmethyl-ureido)-21-oxolup-18-ene] belongs 200 to 999 nM; to `CC(C)C1=C2C3CCC4[C@@]5(C)CC[C@H](OC(=O)CC(C)(C)C(=O)O)C(C)(C)C5CC[C@@]4(C)[C@]3(C)CC[C@@]2(NC(=O)NC2CC2)CC1=O` (stereo partly drawn) [17-22, 3β-O-(3′,3′-Dimethylsuccinyl)-17β-(N′-cyclopropyl-ureido)-21-oxolup-18-ene], less than 199 nM.
For `CC(C)C1=C2C3CCC4[C@@]5(C)CC[C@H](OC(=O)CC(C)(C)C(=O)O)C(C)(C)C5CC[C@@]4(C)[C@]3(C)CC[C@@]2(NC(=O)N2CCC(N)CC2)CC1=O` (stereo partly drawn) [17-23, 3β-O-(3′,3′-Dimethylsuccinyl)-17β-[(4-amino-piperidine-1-carbonyl)-amino]-21-oxolup-18-ene trifluoroacetate], for the setting “read-out: MT2 (HIVIIIB) with HS 30% IC50 range, MT2 cells, with 30% human serum, average IC50 if tested more than once”, the IC50 is 200 to 999 nM.
For the molecule `CC(C)C1=C2C3CCC4[C@@]5(C)CC[C@H](OC(=O)CC(C)(C)C(=O)O)C(C)(C)C5CC[C@@]4(C)[C@]3(C)CC[C@@]2(NC(=O)N2CCC(N)CC2)CC1=O` (stereo partly drawn) [17-24, 3β-O-(3′,3′-Dimethylsuccinyl)-17β-[(4-amino-piperidine-1-carbonyl)-amino]-21-oxolup-18-ene], the half-inhibitory concentration (IC50) under setting [1] is 200 to 999 nM.
The same measure, in the same setting: to `CC(C)C1=C2[C@H]3CC[C@@H]4[C@@]5(C)CC[C@H](OC(=O)CC(C)(C)C(=O)O)C(C)(C)[C@@H]5CC[C@@]4(C)[C@]3(C)CC[C@@]2(NC(=O)Nc2ccccn2)CC1=O` [17-25, 3β-O-(3′,3′-Dimethylsuccinyl)-17β-(N′-pyridin-2-yl-ureido)-21-oxolup-18-ene] belongs less than 199 nM; to `CC(C)C1=C2[C@H]3CC[C@@H]4[C@@]5(C)CC[C@H](OC(=O)CC(C)(C)C(=O)O)C(C)(C)[C@@H]5CC[C@@]4(C)[C@]3(C)CC[C@@]2(NC(=O)Nc2ccncc2)CC1=O` [17-26, 3β-O-(3′,3′-Dimethylsuccinyl)-17β-(N′-pyridin-4-yl-ureido)-21-oxolup-18-ene], less than 199 nM.
